Test results published in PMC7663809, “Dual-Inhibitors of N-Myc and AURKA as Potential Therapy for Neuroendocrine Prostate Cancer” (International Journal of Molecular Sciences, 2020).

How the values were obtained:
22Rv1 cells = test: Cell viability assay, 22Rv1; format: cell-based, human; conditions: for Growth inhibition of 22Rv1 cells / IC50: serial dilution; for Growth inhibition of 22Rv1 cells: up to 10 µM; for Inhibitory activity in 22Rv1: 1 μM; for Inhibitory activity in 22Rv1 / viability at 5 µM / viability at 10 µM / IC50: 72 h; for viability at 5 µM / viability at 10 µM / IC50: Homo sapiens, 22Rv1; for viability at 5 µM / viability at 10 µM: read-out: % activation (cell viability) in 22Rv1; for IC50: read-out: IC50, growth inhibition of 22Rv1 cells
Experimental: (§1) NCI-H660 cells were purchased from the American Type Culture Collection (ATCC) and grown in RPMI medium supplemented with 5% fetal bovine serum (FBS), 1% Isulin-Transferrin-Selenium (Thermo Fisher, 41400-045, Waltham, MA, USA), 10 nM b-estradiol (Sigma, E8875; Darmstadt, Germany), 10 nM hydrocortisone (Sigma H0888), and 1% matrigel. HO15.19 cells were a generous gift from John Sidivy at Brown University and were cultured in Dulbecco’s modified Eagle’s medium (DMEM) (ATCC 30–2002) supplemented with 10% FBS. LNCaP-N-Myc and 22rv1-N-Myc cells were a generous gift from David Rickman at Weill Cornell Medicine (New York, NY, USA) and were cultured in RPMI supplemented with 10% FBS.
(§2) Viability of N-Myc -overexpressing LNCaP and 22Rv1 was done with 5000 cells per well in RPMI supplemented with 10% FBS and read with Cell Titer Glo (Promega, cat# G7572; Madison, WI, USA) according to the manufacturer’s protocol. Eagle’s minimum essential medium (EMEM) supplemented with 10% FBS was used for the Myc-negative HO15.19 cells at 2000 cells per well and 20,000 neuroendocrine NCI-H660 cells were plated in RPMI supplemented with 5% FBS, 1% Isulin-Transferrin-Selenium (Thermo Fisher, 41400-045), 10 nM b-estradiol (Sigma, E8875), 10 nM hydrocortisone (Sigma H0888), and 1% matrigel. All cells were incubated for 72 h with the compounds.

LNCaP cells = test: Cell viability assay, LNCaP; format: cell-based, human; conditions: for Growth inhibition of LNCaP cells / IC50: serial dilution; for Growth inhibition of LNCaP cells: up to 10 µM; for Inhibitory activity in LNCaP: 1 μM; for Inhibitory activity in LNCaP / viability at 5 µM / viability at 10 µM / IC50: 72 h; for viability at 5 µM / viability at 10 µM / IC50: Homo sapiens, LNCaP; for viability at 5 µM / viability at 10 µM: read-out: % activation (cell viability) in LNCaP; for IC50: read-out: IC50, growth inhibition of LNCaP cells
Experimental: LNCaP were plated at 5000 cells per well in RPMI 1640 containing 5% CSS in a 96-well plate, treated with test compounds (0–25 μM) for 72 h. Cell density was measured using the PrestoBlue assay according to the manufacturer’s protocol. The percentage of cell survival was normalized to the cell density of control wells treated by vehicle. […]

HO15.19 cells = test: Growth / viability in Myc negative cell line HO15.19; format: cell-based
Experimental: as §1
as §2, with “All cells were incubated for 72 h with the compounds.” left out

Myc-Max = Myc-Max luciferase transcription inhibition (Cignal Myc reporter) assay in LNCaP cells; format: cell-based; conditions: Homo sapiens, 24 h, 0-25 μM, 1 day
Experimental: The eGFP Myc transcriptional activity was assayed as previously described. Briefly, cell transfection was performed using TransIT-2020 transfection reagents according to the manufacturer’s instructions. LNCaP cells were plated at 10,000 cells per well and treated for 1 day with the indicated concentration of compound with increasing concentrations (0−25 μM) of compounds for screening and measuring IC50. Myc reporter activity was measured using the Cignal Myc Reporter Assay Kit from Qiagen (#336841; Hilden, Germany) according to the manufacturer’s instructions.

NCI-H660 cells = test: Cell viability assay, NCI-H660; format: cell-based; conditions: 72 h; for Inhibitory activity in NCI-H660: 1 μM; for viability at 5 µM / viability at 10 µM: NCI-H660, read-out: % activation (cell viability) in NCI-H660
Experimental: as §1, §2

N-Myc-Max DBD = N-Myc-Max DBD (Homo sapiens, UniProt P04198+P61244); test: Biolayer interferometry: binding of N-Myc-Max complex to biotinylated E-box DNA; conditions: 100 µM and 200 µM
Chain of N-Myc-Max DBD (P04198 377-464): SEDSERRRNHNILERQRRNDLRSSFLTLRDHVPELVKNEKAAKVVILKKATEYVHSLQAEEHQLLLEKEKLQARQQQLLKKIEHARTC
Chain of N-Myc-Max DBD (P61244 22-102): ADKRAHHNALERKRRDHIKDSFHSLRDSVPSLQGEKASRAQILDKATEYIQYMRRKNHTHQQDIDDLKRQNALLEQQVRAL
Experimental: The direct interaction between biotinylated E-box oligo immobilized on a streptavidin biosensor and a purified N-Myc-Max complex (0.05 mg/ml) was quantified by BLI using OctetRED (ForteBio). The DNA was first bound to the super-streptavidin sensors. The sensors were next moved into wells containing the reaction buffer (20 mM Tris pH 8, 150 mM NaCl, 5% glycerol, 0.2 mM TCEP, 5% dimethylsulfoxide) for measuring the baseline and next into the N-Myc-Max complex alone or in presence of the tested inhibitors to study the association of the complex to the DNA.

AURKA = target: T1, AURKA (Homo sapiens, UniProt O14965); test: Aurora A kinase activity assay (ADP-Glo); format: biochemical; conditions: read-out: AURKA enzyme activity remaining
T1 construct: 10 ng Aurora-A catalytic domain
T1 sequence (O14965 133-383 limits assumed): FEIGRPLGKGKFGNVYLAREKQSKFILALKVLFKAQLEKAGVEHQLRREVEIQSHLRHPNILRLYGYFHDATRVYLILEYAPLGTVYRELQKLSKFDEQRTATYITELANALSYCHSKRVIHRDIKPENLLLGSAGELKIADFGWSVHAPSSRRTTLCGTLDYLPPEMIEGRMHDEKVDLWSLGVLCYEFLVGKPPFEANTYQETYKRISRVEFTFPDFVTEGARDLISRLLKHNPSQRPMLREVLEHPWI
Experimental: AURKA kinase assays were performed using the ADP-Glo Kinase assay (Promega) according to the manufacturer protocol. Measurement of Aurora-A activity was carried out using reactions containing (per well):10 ng Aurora-A catalytic domain, 50 uM ATP, and 0.5 myelin basic protein (MBP), in 5% dimethyl sulfoxide (DMSO). Reactions were incubated at room temperature for 60 min, and luminescence data (integration time: 0.5–1 s) was recorded on a Tecan M200 Pro reader (Männedorf, Switzerland).

Row | Compound | Growth inhibition of 22Rv1 cells (22Rv1 cells) | Growth inhibition of LNCaP cells (LNCaP cells) | IC50 (Myc-Max) [µM] | Inhibitory activity in 22Rv1 (22Rv1 cells) | viability at 5 µM (22Rv1 cells) [%] | viability at 10 µM (22Rv1 cells) [%] | IC50 (22Rv1 cells) [µM] | Inhibitory activity in LNCaP (LNCaP cells) | viability at 5 µM (LNCaP cells) [%] | viability at 10 µM (LNCaP cells) [%] | IC50 (LNCaP cells) [µM] | Inhibitory activity in NCI-H660 (NCI-H660 cells) | viability at 5 µM (NCI-H660 cells) [%] | viability at 10 µM (NCI-H660 cells) [%] | Disruption of DNA binding to N-Myc-Max DBD (BLI) (N-Myc-Max DBD) | other results
1 | CCc1ccc(/C=C2/SC(=S)NC2=O)cc1 [10058-F4, reference compound] | ineffective | ineffective | – | – | – | – | – | – | – | – | – | – | – | – | – | –
2 | O=[N+]([O-])c1ccc(Nc2ccccc2-c2ccccc2)c2nonc12 [10074-G5, reference compound] | ineffective | ineffective | – | – | – | – | – | – | – | – | – | – | – | – | – | –
3 | O=C(Nc1ccc(Nc2nccc(Nc3cc(C4CCCC4)[nH]n3)n2)cc1)Nc1cccc(C(F)(F)F)c1 [CD532, reference compound] | – | – | – | – | – | – | – | – | – | – | – | – | – | – | – | Cytotoxicity in N-Myc negative cell line HO15.19 (HO15.19 cells; 10, 5 and 1 µM, 72 h): cytotoxicity
4 | N#Cc1ccc(NNC(=O)c2ccc(C(F)(F)F)cc2)c(C(F)(F)F)c1 [compound 70551, N′-[4-cyano-2-(trifluoromethyl)phenyl]-4-(trifluoromethyl)benzohydrazide] | – | – | 4 | no significant inhibitory activity | > 75 | 78.8 | 15.6 | no significant inhibitory activity | > 75 | 49.7 | 11.1 | no significant inhibitory activity | > 75 | 49.2 | weak disruption | Toxicity in HO15.19 (HO15.19 cells; 20 μM, 120 h): slight toxicity; Effect on HO15.19 growth (HO15.19 cells; N-Myc null cell line, 120 h, below 20 μM): minimal effect
5 | N#Cc1ccc(NNC(=O)c2ccc(Nc3nccc(Nc4cc(C5CCCC5)n[nH]4)n3)cc2)c(C(F)(F)F)c1 [compound 70812] | – | – | 2 | No discernable inhibitory activity | 66.5 | 16.6 | 3.71 | No discernable inhibitory activity | 32.5 | 1.4 | 3.05 | No discernable inhibitory activity | 82.9 | 52.1 | effectively disrupt | remaining activity at 5 µM (AURKA; 5 µM compound): 21.1%; remaining activity at 10 µM (AURKA; 10 µM compound): 19.9%; remaining activity at 15 µM (AURKA; 15 µM compound): 18.7%; remaining activity at 30 µM (AURKA; 30 µM compound): 21.4%
